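A five-concentration, 48-hour dose response in 96-well plates underlies each endpoint, interpolated linearly between surrounding concentrations. TGI: total growth inhibition.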
Assays:
Experiment in all cases: inhibition of tumour cell growth, NCI panel, 48 h
786-0 renal = system: 786-0 renal
A498 renal = system: A498 renal
A549 NSCLC = system: A549 NSCLC
ACHN renal = system: ACHN renal
BT-549 breast = system: BT-549 breast
CAKI-1 renal = system: CAKI-1 renal
CCRF-CEM leukemia = system: CCRF-CEM leukemia
COLO 205 colon = system: COLO 205 colon
DU-145 prostate = system: DU-145 prostate
EKVX NSCLC = system: EKVX NSCLC
HCC-2998 colon = system: HCC-2998 colon
HCT-116 colon = system: HCT-116 colon
HCT-15 colon = system: HCT-15 colon
HL-60(TB) leukemia = system: HL-60(TB) leukemia
HOP-92 NSCLC = system: HOP-92 NSCLC
IGROV1 ovarian = system: IGROV1 ovarian
K-562 leukemia = system: K-562 leukemia
KM12 colon = system: KM12 colon
LOX IMVI melanoma = system: LOX IMVI melanoma
M14 melanoma = system: M14 melanoma
MALME-3M melanoma = system: MALME-3M melanoma
MDA-MB-231 breast = system: MDA-MB-231 breast
MDA-MB-435 = system: MDA-MB-435
MDA-N = system: MDA-N
MOLT-4 leukemia = system: MOLT-4 leukemia
NCI-H226 lung = system: NCI-H226 lung
NCI-H23 lung = system: NCI-H23 lung
NCI-H460 lung = system: NCI-H460 lung
NCI-H522 lung = system: NCI-H522 lung
NCI/ADR-RES ovarian = system: NCI/ADR-RES ovarian
OVCAR-4 ovarian = system: OVCAR-4 ovarian
OVCAR-5 ovarian = system: OVCAR-5 ovarian
OVCAR-8 ovarian = system: OVCAR-8 ovarian
PC-3 prostate = system: PC-3 prostate
RPMI-8226 leukemia = system: RPMI-8226 leukemia
RXF 393 renal = system: RXF 393 renal
SF-268 CNS = system: SF-268 CNS
SF-295 CNS = system: SF-295 CNS
SF-539 CNS = system: SF-539 CNS
SK-MEL-2 melanoma = system: SK-MEL-2 melanoma
SK-MEL-28 melanoma = system: SK-MEL-28 melanoma
SK-MEL-5 melanoma = system: SK-MEL-5 melanoma
SK-OV-3 ovarian = system: SK-OV-3 ovarian
SN12C renal = system: SN12C renal
SNB-19 CNS = system: SNB-19 CNS
SNB-75 CNS = system: SNB-75 CNS
SR leukemia = system: SR leukemia
SW-620 colon = system: SW-620 colon
T-47D breast = system: T-47D breast
TK-10 renal = system: TK-10 renal
U251 CNS = system: U251 CNS
UACC-257 melanoma = system: UACC-257 melanoma
UACC-62 melanoma = system: UACC-62 melanoma
UO-31 renal = system: UO-31 renal
HOP-62 NSCLC = system: HOP-62 NSCLC
MCF7 breast = system: MCF7 breast
OVCAR-3 ovarian = system: OVCAR-3 ovarian
HT29 colon = system: HT29 colon

Question: Which TGI (786-0 renal) does the source give for O=C1c2cc([N+](=O)[O-])sc2C(=O)c2c([N+](=O)[O-])csc21 here?
Answer: 1.66 µM

Question: What about the TGI (A498 renal) of the same compound?
Answer: 3.34 µM

Question: What about the TGI (A549 NSCLC) of the same compound?
Answer: 3.56 µM

Question: What about the TGI (ACHN renal) of the same compound?
Answer: 0.779 µM

Question: And the TGI (BT-549 breast)?
Answer: 1.93 µM

Question: What about the TGI (CAKI-1 renal) of the same compound?
Answer: 2.48 µM

Question: And the TGI (CCRF-CEM leukemia)?
Answer: 0.389 µM

Question: And the TGI (COLO 205 colon)?
Answer: 3.26 µM

Question: And the TGI (DU-145 prostate)?
Answer: 3.07 µM

Question: And the TGI (EKVX NSCLC)?
Answer: 3.4 µM

Question: And the TGI (HCC-2998 colon)?
Answer: 2.3 µM

Question: What about the TGI (HCT-116 colon) of the same compound?
Answer: 1.78 µM

Question: And the TGI (HCT-15 colon)?
Answer: 4.41 µM

Question: And the TGI (HL-60(TB) leukemia)?
Answer: 0.112 µM

Question: What about the TGI (HOP-92 NSCLC) of the same compound?
Answer: 0.82 µM

Question: And the TGI (IGROV1 ovarian)?
Answer: 1.4 µM

Question: And the TGI (K-562 leukemia)?
Answer: 0.399 µM

Question: And the TGI (KM12 colon)?
Answer: 2.6 µM

Question: What about the TGI (LOX IMVI melanoma) of the same compound?
Answer: 0.269 µM

Question: What about the TGI (M14 melanoma) of the same compound?
Answer: 1.26 µM

Question: What about the TGI (MALME-3M melanoma) of the same compound?
Answer: 0.753 µM

Question: What about the TGI (MDA-MB-231 breast) of the same compound?
Answer: 2.19 µM

Question: What about the TGI (MDA-MB-435) of the same compound?
Answer: 0.311 µM

Question: And the TGI (MDA-N)?
Answer: 0.363 µM

Question: What about the TGI (MOLT-4 leukemia) of the same compound?
Answer: 0.484 µM

Question: What about the TGI (NCI-H226 lung) of the same compound?
Answer: 3.8 µM

Question: What about the TGI (NCI-H23 lung) of the same compound?
Answer: 2.05 µM

Question: What about the TGI (NCI-H460 lung) of the same compound?
Answer: 3.5 µM

Question: What about the TGI (NCI-H522 lung) of the same compound?
Answer: 1.68 µM

Question: What about the TGI (NCI/ADR-RES ovarian) of the same compound?
Answer: 4.16 µM

Question: And the TGI (OVCAR-4 ovarian)?
Answer: 2.06 µM

Question: And the TGI (OVCAR-5 ovarian)?
Answer: 2.95 µM

Question: What about the TGI (OVCAR-8 ovarian) of the same compound?
Answer: 3.04 µM

Question: And the TGI (PC-3 prostate)?
Answer: 3.09 µM

Question: And the TGI (RPMI-8226 leukemia)?
Answer: 0.934 µM

Question: And the TGI (RXF 393 renal)?
Answer: 1.76 µM

Question: What about the TGI (SF-268 CNS) of the same compound?
Answer: 0.994 µM

Question: And the TGI (SF-295 CNS)?
Answer: 2.32 µM

Question: And the TGI (SF-539 CNS)?
Answer: 1.17 µM

Question: And the TGI (SK-MEL-2 melanoma)?
Answer: 3.77 µM

Question: What about the TGI (SK-MEL-28 melanoma) of the same compound?
Answer: 1.92 µM

Question: And the TGI (SK-MEL-5 melanoma)?
Answer: 0.313 µM

Question: What about the TGI (SK-OV-3 ovarian) of the same compound?
Answer: 3.09 µM

Question: And the TGI (SN12C renal)?
Answer: 1.09 µM

Question: And the TGI (SNB-19 CNS)?
Answer: 3.02 µM

Question: What about the TGI (SNB-75 CNS) of the same compound?
Answer: 3.18 µM

Question: And the TGI (SR leukemia)?
Answer: 0.173 µM

Question: And the TGI (SW-620 colon)?
Answer: 1.07 µM

Question: What about the TGI (T-47D breast) of the same compound?
Answer: 4.09 µM

Question: And the TGI (TK-10 renal)?
Answer: 3 µM

Question: And the TGI (U251 CNS)?
Answer: 1.01 µM

Question: What about the TGI (UACC-257 melanoma) of the same compound?
Answer: 1.31 µM

Question: And the TGI (UACC-62 melanoma)?
Answer: 1.19 µM

Question: And the TGI (UO-31 renal)?
Answer: 3.37 µM

Question: How did the TGI (786-0 renal) turn out when O=c1[nH]c2ccc(CC(=S)N3CCCCC3)cc2s1 was run?
Answer: > 100 µM

Question: And the TGI (ACHN renal)?
Answer: > 100 µM

Question: What about the TGI (BT-549 breast) of the same compound?
Answer: > 100 µM

Question: What about the TGI (CAKI-1 renal) of the same compound?
Answer: > 100 µM

Question: What about the TGI (COLO 205 colon) of the same compound?
Answer: > 100 µM

Question: What about the TGI (DU-145 prostate) of the same compound?
Answer: > 100 µM

Question: And the TGI (HCT-116 colon)?
Answer: > 100 µM

Question: What about the TGI (HCT-15 colon) of the same compound?
Answer: > 100 µM

Question: What about the TGI (HOP-62 NSCLC) of the same compound?
Answer: > 100 µM

Question: And the TGI (K-562 leukemia)?
Answer: > 100 µM

Question: And the TGI (KM12 colon)?
Answer: > 100 µM

Question: What about the TGI (LOX IMVI melanoma) of the same compound?
Answer: > 100 µM

Question: What about the TGI (M14 melanoma) of the same compound?
Answer: > 100 µM

Question: What about the TGI (MCF7 breast) of the same compound?
Answer: > 100 µM

Question: And the TGI (MDA-MB-231 breast)?
Answer: > 100 µM

Question: And the TGI (MDA-MB-435)?
Answer: > 100 µM

Question: And the TGI (MDA-N)?
Answer: > 100 µM

Question: What about the TGI (MOLT-4 leukemia) of the same compound?
Answer: > 100 µM

Question: What about the TGI (NCI-H23 lung) of the same compound?
Answer: > 100 µM

Question: And the TGI (OVCAR-3 ovarian)?
Answer: > 100 µM

Question: And the TGI (OVCAR-5 ovarian)?
Answer: > 100 µM

Question: And the TGI (OVCAR-8 ovarian)?
Answer: > 100 µM

Question: What about the TGI (PC-3 prostate) of the same compound?
Answer: > 100 µM

Question: And the TGI (SF-295 CNS)?
Answer: > 100 µM

Question: What about the TGI (SK-MEL-2 melanoma) of the same compound?
Answer: > 100 µM

Question: What about the TGI (SK-MEL-28 melanoma) of the same compound?
Answer: > 100 µM

Question: What about the TGI (SK-OV-3 ovarian) of the same compound?
Answer: > 100 µM

Question: What about the TGI (SNB-19 CNS) of the same compound?
Answer: > 100 µM

Question: And the TGI (SR leukemia)?
Answer: > 100 µM

Question: And the TGI (SW-620 colon)?
Answer: > 100 µM

Question: And the TGI (TK-10 renal)?
Answer: > 100 µM

Question: And the TGI (UACC-257 melanoma)?
Answer: > 100 µM

Question: What about the TGI (UACC-62 melanoma) of the same compound?
Answer: > 100 µM

Question: What does the source list for Cc1csc(-n2c(C)nc3cc(Cl)ccc3c2=O)n1?
Answer: TGI (786-0 renal): > 100 µM; TGI (A498 renal): > 100 µM; TGI (A549 NSCLC): > 100 µM; TGI (ACHN renal): > 100 µM; TGI (BT-549 breast): > 100 µM; TGI (CAKI-1 renal): > 100 µM; TGI (CCRF-CEM leukemia): > 100 µM; TGI (COLO 205 colon): > 100 µM; TGI (DU-145 prostate): > 100 µM; TGI (EKVX NSCLC): 81.4 µM; TGI (HCC-2998 colon): > 100 µM; TGI (HCT-116 colon): > 100 µM; TGI (HCT-15 colon): > 100 µM; TGI (HL-60(TB) leukemia): > 100 µM; TGI (HOP-62 NSCLC): > 100 µM; TGI (HOP-92 NSCLC): > 100 µM; TGI (HT29 colon): > 100 µM; TGI (IGROV1 ovarian): > 100 µM; TGI (K-562 leukemia): > 100 µM; TGI (KM12 colon): > 100 µM; TGI (LOX IMVI melanoma): > 100 µM; TGI (M14 melanoma): > 100 µM; TGI (MCF7 breast): > 100 µM; TGI (MDA-MB-231 breast): > 100 µM; TGI (MDA-MB-435): > 100 µM; TGI (MDA-N): > 100 µM; TGI (MOLT-4 leukemia): > 100 µM; TGI (NCI-H226 lung): > 100 µM; TGI (NCI-H23 lung): > 100 µM; TGI (NCI-H460 lung): > 100 µM; TGI (NCI-H522 lung): 60.6 µM; TGI (NCI/ADR-RES ovarian): > 100 µM; TGI (OVCAR-3 ovarian): > 100 µM; TGI (OVCAR-4 ovarian): > 100 µM; TGI (OVCAR-5 ovarian): > 100 µM; TGI (OVCAR-8 ovarian): > 100 µM; TGI (PC-3 prostate): > 100 µM; TGI (RXF 393 renal): > 100 µM; TGI (SF-268 CNS): > 100 µM; TGI (SF-295 CNS): > 100 µM; TGI (SF-539 CNS): > 100 µM; TGI (SK-MEL-2 melanoma): > 100 µM; TGI (SK-MEL-28 melanoma): > 100 µM; TGI (SK-MEL-5 melanoma): > 100 µM; TGI (SK-OV-3 ovarian): > 100 µM; TGI (SN12C renal): > 100 µM; TGI (SNB-19 CNS): > 100 µM; TGI (SNB-75 CNS): > 100 µM; TGI (SR leukemia): > 100 µM; TGI (SW-620 colon): > 100 µM; TGI (TK-10 renal): > 100 µM; TGI (U251 CNS): > 100 µM; TGI (UACC-257 melanoma): > 100 µM; TGI (UACC-62 melanoma): > 100 µM; TGI (UO-31 renal): > 100 µM

Source: PubChem BioAssay (NCI)
